What was measured:
Assay type in all cases: cell-based
[1] = system: MCL-1-addicted cancer cell-line, H23; assay: apoptosis induction in MCL-1-addicted cancer cell line H23; details: H23 cells
[2] = system: MCL-1-addicted cancer cell-line, H82; assay: apoptosis induction in MCL-1-addicted cancer cell line H82; details: H82 cells
[3] = system: DMS53, SW1417, and H82 cell lines; assay: selective apoptotic induction in cell lines addicted to BCL-2, BCL-XL or MCL-1; details: MCL-1 addicted cancer cell line (H82) over BCL-2 (DMS53) or BCL-XL (SW1417) addicted cancer cell lines; FIG. 2B
[4] = 1 µM of compound, FIG. 1B legend

Q: For `CCOC(=O)c1c(C)oc2cc(Br)c(NS(=O)(=O)c3ccc(OC)cc3)cc12` [Compound 1], which apoptosis induction ([1]; 1 μM of compound, FIG. 1B) is on record?
A: Its apoptosis induction is “robust apoptosis”.

Q: And the apoptosis induction [1, 4]?
A: The apoptosis induction was “robust apoptosis”.

Q: What about the apoptosis induction ([2]; 1 μM of compound, FIG. 1B) of the same molecule?
A: The apoptosis induction was “robust apoptosis”.

Q: What about the apoptosis induction [2, 4] of the same molecule?
A: The apoptosis induction was “robust apoptosis”.

Q: What about the “selectivity of apoptosis induction” value [3] of the same molecule?
A: Its value is “selectively induce apoptosis”.

Reference: US11098021B2, “Phenylsulfonamido-benzofuran derivatives and uses thereof in the treatment of proliferative diseases” (Memorial Sloan-Kettering Cancer Center, priority 2015, dated 2021)
